Assay results taken from PMC8908490 (ACS Omega, 2022).
pIC50: −log10 of the molar value.

Assays:
[1] = tested on: interleukin-1β; details: cell-based interleukin-1β assay; cited from earlier work
[2] = cited from earlier work
[3] = HPLC-based chemical stability at different pH; details: for chemical stability (in words): acidic conditions, pH 1, 37 °C
[4] = target: human NLRP3-NACHT domain (Homo sapiens, UniProt Q96P20); details: presence of ADP
Sequence of human NLRP3-NACHT domain (Q96P20 220-536 limits assumed): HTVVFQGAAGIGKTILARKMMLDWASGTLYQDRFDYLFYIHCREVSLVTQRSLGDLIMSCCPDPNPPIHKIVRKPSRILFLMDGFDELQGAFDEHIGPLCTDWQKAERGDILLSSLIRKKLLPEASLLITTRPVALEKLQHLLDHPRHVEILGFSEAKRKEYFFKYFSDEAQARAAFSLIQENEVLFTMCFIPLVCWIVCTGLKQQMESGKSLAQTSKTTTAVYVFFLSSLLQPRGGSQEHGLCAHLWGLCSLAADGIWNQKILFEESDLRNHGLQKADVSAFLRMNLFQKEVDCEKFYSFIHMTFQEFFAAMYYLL

| chemical stability (in words) [3] | Structure (SMILES) | also measured |
| --- | --- | --- |
|  | CC(C)(O)c1coc(S(=O)(=O)NC(=O)Nc2c3c(cc4c2CCC4)CCC3)c1 [Compound 1, N-((1,2,3,5,6,7-Hexahydro-s-indacen-4-yl)carbamoyl)-4-(2-hydroxypropan-2-yl)furan-2-sulfonamide] | pIC50 [1]: 8.12; plasma half-life [2]: 3.27 h |
| similarly stable | CC(C)(O)c1csc(S(=O)(=O)NC(=O)Nc2c3c(cc4c2CCC4)CCC3)c1 [Compound 2, N-((1,2,3,5,6,7-Hexahydro-s-indacen-4-yl)carbamoyl)-4-(2-hydroxypropan-2-yl)thiophene-2-sulfonamide] |  |
| unstable | O=C(Nc1c2c(cc3c1CCC3)CCC2)NS(=O)(=O)c1ccco1 [Compound 3, N-((1,2,3,5,6,7-Hexahydro-s-indacen-4-yl)carbamoyl)furan-2-sulfonamide] |  |
|  | O=C(Nc1c2c(cc3c1CCC3)CCC2)NS(=O)(=O)c1cccs1 [Compound 4, N-((1,2,3,5,6,7-Hexahydro-s-indacen-4-yl)carbamoyl)thiophene-2-sulfonamide] | fold shorter half-life than benzene analogue ([3]; pH 1, 4 versus 8, 6 versus 9): 12 fold |
| unstable | CC(C)S(=O)(=O)NC(=O)Nc1c2c(cc3c1CCC3)CCC2 [Compound 5, N-((1,2,3,5,6,7-Hexahydro-s-indacen-4-yl)carbamoyl)propane-2-sulfonamide] |  |
| similarly unstable | O=C(Nc1c2c(cc3c1CCCC3)CCCC2)NS(=O)(=O)c1ccccc1 [Compound 7, N-((1,2,3,4,5,6,7,8-Octahydroanthracen-9-yl)carbamoyl)benzenesulfonamide] | NLRP3 binding by SPR (in words) [4]: total loss of binding ability |
